How the values were obtained:
[1] = system: CH058TF-infected CEM.NKr cells; type: cell-based, HIV-1; settings: 50 μM added BNM-III-170 vs absence
Method: Cell surface staining was performed at 48 h post-infection. Mock-infected or HIV-1-infected CEM.NKr or primary CD4+ T cells were incubated for 45 min at 37°C with anti-Env mAbs (5 µg/mL), plasma from PWH (1:1,000 dilution), or plasma from infected RMs (1:500). When indicated, antibody/plasma incubation was done in the presence of 50 µM of BNM-III-170, or equivalent amounts of DMSO. To evaluate the capacity of plasma from SHIV-AD8-EO-infected RMs treated with BNM-III-170 to recognize HIV-1-infected cells, a 1:10 plasma dilution was used. Cells were then washed twice with PBS and stained with the appropriate Alexa Fluor 647-conjugated secondary antibody (2 µg/mL) for 20 min and the viability dye AquaVivid (Thermo Fisher Scientific) at room temperature. Cells were then washed twice with PBS and fixed in a 2% PBS-formaldehyde solution. […]
Measurement of ADCC using the FACS-based assay was performed at 48 h post-infection, as previously described. […] The percentage of ADCC was calculated with the following formula: (% of p24+/p27+ cells in Targets plus Effectors) − (% of p24+/p27+ cells in Targets plus Effectors plus Abs) / (% of p24+/p27+ cells in Targets) by gating on infected live target cells.

[2] = in vivo, 12 mg/kg
Method: BNM-III-170 levels in plasma from rhesus macaque were determined by high-performance liquid chromatography-tandem mass spectrometry (HPLC-MS/MS). Briefly, BNM-III-170 was extracted from plasma using protein precipitation. A Thermo Scientific TSQ Quantiva triple quadrupole mass spectrometer was interfaced with the Thermo Scientific Ultimate 3000XRS UHPLC system using a heated electrospray ion source (HESI). MS detection was performed in positive ion mode, using multiple reaction monitoring (MRM). The precursor-ion reactions for BNM-III-170 and IS were set to 447.3 → [226.1 + 357.1] and 262.0 → 139.1, respectively. Chromatographic separation was achieved on a Thermo Scientific Accucore RP-MS analytical column (100 × 2.1 mm I.D., 2.6 mm) maintained at 40°C using isocratic elution, which consisted of acetonitrile and 10 mM ammonium formate in water (pH 3.0) at a ratio of 20:80, respectively. The flow rate was fixed at 300 µL/min. Acquisition and analysis of data were conducted using the Xcalibur 4.0 software. Each calibration curve was comprised of a double blank (matrix without analyte or internal standard), zero standard, and eight calibration points. Calibration curves were computed from the equation y = ax + b, based on the weight of the calibration lines created from the peak-area ratios of the drug relative to the internal standard.

[3] = system: Env expressed on CH058TF-infected cells; assay: Binding of anti-CoRBS mAb 17b to CH058TF-infected cells after incubation with plasma from BNM-III-170-treated uninfected RMs (FACS); type: cell-based, HIV-1
Method: Next, we assessed the ability of the plasma collected from uninfected RMs at various timepoints following BNM-III-170 administration to induce conformational changes in Env expressed on the surface of HIV-1-infected cells. Briefly, plasma was incubated with cells infected with the transmitted/founder virus CH058 (CH058TF) and the binding of the Alexa-Fluor-647-conjugated anti-CoRBS mAb 17b (whose epitope is not exposed on the “closed” Env conformation) to Env expressed on infected cells was measured by FACS (Fig. 1B).
To evaluate the functional activity of bioavailable BNM-III-170 in plasma, the plasma from uninfected RMs treated with BNM-III-170 was used to modulate Env conformation at the surface of infected cells. Briefly, 2 days post-infection, CEM.NKr cells infected with CH058TF were incubated with plasma from RMs (1:10 dilution), the Alexa-Fluor 647-conjugated 17b (5 µg/mL), and the AquaVivid viability dye at 37°C for 45 min. As a positive control, infected cells were incubated with 50 µM of BNM-III-170. Infected cells were then identified based on HIV-1 p24 detection as described above.

[4] = system: CEM.NKr-CCR5-sLTR-Luc cells infected with SHIV AD8-EO; type: cell-based
[5] = system: SHIV AD8-EO-infected rhesus macaques; assay: Complete blood counts and flow cytometry immunophenotyping of PBMCs in SHIV AD8-EO-infected RMs after BNM-III-170; type: in vivo, Macaca mulatta
Method: In addition to monitoring blood chemistries, complete blood counts (CBCs) were performed immediately prior to BNM-III-170 treatment and at several post-treatment timepoints (Fig. 4A). Significant increases in white blood cell counts (WBCs) were observed between 0 h and 24 h after the terminal dose of each treatment cycle (median WBCs: 7,550 and 12,595, respectively, P-value = 0.0391). This increase in WBCs was largely attributed to increases in neutrophils (median counts at 0 h vs. 24 h of 2,926 and 8,004, P-value = 0.0078) and, to a lesser extent, monocytes (median counts at 0 h vs 24 h after the terminal dose of 696 and 1,537, P-value = 0.0391). […] Of note, this lymphopenia was generally transient (Fig. S5).
To further investigate this observed lymphopenia, multiparameter flow cytometry was performed on PBMCs from 0 h and 24 h post-terminal dose timepoints from all treatment cycles (Fig. S6). […] While the exact cause of this non-specific lymphopenia is unknown, it may be due to depletion of lymphocytes or migration of lymphocytes to tissue; the latter explanation is more consistent with the transient nature of the lymphopenia.
A 20-parameter flow cytometric analysis was performed on fresh PBMCs and mononuclear cells (10^6 cells) derived from LN biopsies using anti-human monoclonal Abs (mAbs), which we ([6], [58][–][60]) and others, including databases maintained by the NHP Reagent Resource (MassBiologics), have shown as being cross-reactive in RMs. […] All samples were fixed with 1% paraformaldehyde and acquired within 24 h of fixation. Acquisition of data was performed on a FACSymphony A5 (BD Biosciences) driven by FACS DiVa software and analyzed with FlowJo (version 10.7; Becton, Dickinson, and Company).

CNCc1ccc2c(c1)C[C@H](CN=C(N)N)[C@H]2NC(=O)C(=O)Nc1ccc(Cl)c(F)c1.O=C(O)C(F)(F)F.O=C(O)C(F)(F)F [BNM-III-170]
ADCC activity of Abs in 0 h RM plasma against infected cells [1]: significantly increased
binding of Abs in 0 h RM plasma to infected cells [1]: significantly increased
Cmax [2]: 15.3 µg/mL
association between 17b binding and BNM-III-170 plasma concentrations ([3]; each dose and all combined doses, Spearman correlation): positive correlation
effect on 17b binding to CH058TF-infected cells ([3]; plasma from uninfected RMs, all tested doses (3–36 mg/kg SQ)): consistently shown to increase 17b binding
duration of residual 17b activity ([3]; plasma from uninfected RMs, highest tested dose (36 mg/kg SQ)): up to 8 h
binding of plasma from PWH to infected cells [4]: enhance binding of plasma from PWH
white blood cell counts (WBCs), median ([5]; 24 h after terminal dose of each treatment cycle, 0 h median 7,550, P-value = 0.0391): 12,595
monocytes, median counts ([5]; 24 h after terminal dose, 0 h median 696, P-value = 0.0391): 1,537
neutrophils, median counts ([5]; 24 h after terminal dose, 0 h median 2,926, P-value = 0.0078): 8,004
absolute numbers of NK cells, median ([5]; 24 h post-terminal dose, 0 h median 191, P = 0.0078): 48 cells per μL blood
absolute numbers of CD4+ T cells, median ([5]; 24 h post-terminal dose, 0 h median 496, P = 0.0078): 283 cells per μL blood
absolute numbers of CD8+ T cells, median ([5]; 24 h post-terminal dose, 0 h median 1,084, P = 0.0078): 323.5 cells per μL blood
absolute numbers of B cells, median ([5]; 24 h post-terminal dose, 0 h median 1,129, P = 0.0391): 1,080 cells per μL blood
lymphocyte frequency in whole blood ([5]; 24 h post-terminal dose, 49% at 0 h, P = 0.0078): 19.5%
lymphocyte numbers in whole blood ([5]; 24 h post-terminal dose, 3,774 at 0 h, P = 0.0078): 2,068
